Converted amounts (≈) assume the structure as drawn. “Also recorded” adds a separate entry of the source. Where two headings read alike, the source gives them in different places.
How the values were obtained:
Assay type in all cases: physicochemical
[1] = Static storage at 40° C./75% RH, XRPD and HPLC post storage; settings: for stability to storage at 40° C./75% RH (in words): 40° C./75% RH (elevated temperature and humidity); for XRPD post storage at 40° C./75% RH / HPLC purity post storage at 40° C./75% RH: 7 days
Procedure: Purity analysis was performed on an Agilent HP1100/Infinity II 1260 series system equipped with a diode array detector and using OpenLAB software. The full method details are provided below:
Poorly Crystalline Structure (I) (from Lot A, Free Form Pattern 1, 30 mg) was dissolved in 50 volumes of THF:Water 9:1 at 60° C. in 13 vials, stirring at 500 RPM (small amount of debris present). The solutions were then treated with 1.1 molar equivalents (90/180 μL) of selected counter-ions (Table 7). The resulting solutions were then cooled down to 5° C. at 0.1° C./min and were held at this temperature for 2 days. The suspensions were filtered and dried under suction for 20 min. The gummed sample was left with the cap off to promote crystallization. All solids obtained were initially analyzed by XRPD and stored in glass HPLC vials for subsequent analysis.
Any solids obtained were analyzed by XRPD, ^1H NMR, HPLC, TGA, DSC, XRPD post storage at 40° C./75% RH after 7 days & IC if necessary. Additional microscopy techniques (PLM & HSM) were used to complement the above analysis where appropriate.

[2] = as above; settings: 7 days
pKa measurements = settings: listed as Lot A
[3] = Thermodynamic solubility in simulated media and buffers; settings: 25 °C, thermodynamic from solid
Procedure: The thermodynamic solubility for Pattern 11 was determined in 3 simulated media and two buffers. […]

[4] = Gravimetric vapor sorption (GVS) and XRPD post-GVS
Procedure: Sorption isotherms were obtained using a SMS DVS Intrinsic moisture sorption analyzer, controlled by DVS Intrinsic Control software. The sample temperature was maintained at 25° C. by the instrument controls. The humidity was controlled by mixing streams of dry and wet nitrogen, with a total flow rate of 200 mL/min. The relative humidity was measured by a calibrated Rotronic probe (dynamic range of 1.0-100% RH), located near the sample. The weight change, (mass relaxation) of the sample as a function of % RH was constantly monitored by a microbalance (accuracy±0.005 mg).
(§1) Typically, 5-30 mg of sample was placed in a tared mesh stainless steel basket under ambient conditions. The sample was loaded and unloaded at 40% RH and 25° C. (typical room conditions). A moisture sorption isotherm was performed as outlined below (2 scans per complete cycle). The standard isotherm was performed at 25° C. at 10% RH intervals over a 0-90% RH range. Typically, a double cycle (4 scans) was carried out. Data analysis was carried out within Microsoft Excel using the DVS Analysis Suite.
Sorption isotherms were obtained using a Hiden IGASorp moisture sorption analyser, controlled by Isochema HISorp software. The sample temperature was maintained at 25° C. by a Grant LT ecocool 150 re-circulating water bath. The humidity was controlled by mixing streams of dry and wet nitrogen, with a total flow rate of 250 ml·min-1. The relative humidity was measured by a calibrated Vaisala RH probe (dynamic range of 0-95% RH), located near the sample. The weight change, (mass relaxation) of the sample as a function of % RH was constantly monitored by the microbalance (accuracy±0.001 mg).
as §1, with “Typically, 20-30” for “Typically, 5-30”, “scans giving 1” for “scans per”, “within the Isochema HISorp 2019 software and exported into” for “within”, “Excel to present accordingly.” for “Excel using the DVS Analysis Suite.”

[5] = Static storage at 25° C./97% RH, XRPD and HPLC post storage; settings: 8 days, listed as Lot A
[6] = Initial solubility testing in solvents; settings: for solubility: organic solvent or mixture, thermodynamic from solid
Procedure: Structure (I) (20 mg) from Lot A (free form Pattern 1) was charged into HPLC vials, treated with solvent, 10 volumes at a time, until the material fully dissolved or a maximum of 50 volumes had been added. Once 50 volumes was reached without dissolution, the temperature was increased to 50° C. To each suspension, 1.1 molar equiv. (60 μL) of HCl (1M in THF) was added, stirred for 5 min, and slowly cooled to 5° C. at 0.1° C./min and held at that temperature overnight. All solids were then isolated by filtration through PTFE frits and dried under suction for 20 min. The samples were analyzed by XRPD.

[7] = Drying / standing under ambient conditions, XRPD; settings: for XRPD (Dry): after drying under ambient conditions overnight
Procedure: Structure (I) (Sample 28-2, 30 mg, Poorly Crystalline Pattern 3) was wetted with solvent (300 μL, 10 vol) according to Table 30 and put into a shaker at 50° C. for 6 days. The suspensions were isolated using filter cartridges and positive pressure. A XRPD pattern was collected for each sample. […] This characterization is presented and discussed in Examples detailed herein. (see, e.g., FIG. 75)

[8] = Variable temperature XRPD (VT-XRPD); settings: 250° C.
Excerpt: (§2) XRPD diffractograms were collected on a PANalytical Empyrean diffractometer using Cu Kα radiation (45 kV, 40 mA, λ=1.544398 Å) in reflection geometry. The instrument was fitted with an Anton Paar CHC plus+ stage fitted with graphite/Kapton windows and equipped with air cooling coupled or a low vacuum pump system using an Edwards RV3 pump. A programmable divergence slit (in automatic mode), with a 10 mm fixed incident beam mask, Ni filter and 0.04 rad Soller slits were used on the incident beam. A PIXcel3D detector, placed on the diffracted beam, was fitted with a programmable anti-scatter slit (in automatic mode) and 0.04 rad Soller slits.
For variable temperature (VT-XRPD) experiments the samples were prepared and analyzed in an Anton Paar chromed sample holder. The sample chamber was under ambient atmosphere and a heating/cooling rate of 10° C./min was used with a 2 min isothermal hold before the measurement started. The measurement parameters are as per the standard screening data collection method (detailed above). Measurements were taken at the following temperatures: 25, 80, 170, 250, and 25° C.

XRPD under vacuum = settings: vacuum released for 30 min, ambient conditions
Excerpt: as §2
For XRPD under vacuum the samples were prepared and analyzed in an Anton Paar chromed sample holder. The sample temperature was kept constant throughout at 25° C. The measurement parameters are as per the standard screening data collection method (detailed above). An initial measurement was taken before the vacuum was initiated and then subsequently at 10 min intervals. Data collection was stopped after three consecutive scans showing no change.

Cc1cc(Nc2cc(N)ncn2)c(=O)n2c1C(=O)NC21CCC2(CC2)CC1 [Maleate Pattern 1]
stability to storage at 40° C./75% RH (in words) ([1]; listed as 9-7): data. Form looks stable | XRPD post storage at 40° C./75% RH ([1]; 40° C./75% RH): consistent with Maleate Pattern 1 | HPLC purity post storage at 40° C./75% RH ([1]; 40° C./75% RH, listed as 9-7): 98.8% purity. Maleate | XRPD post storage at 40° C./75% RH ([2]; listed as 9-7): pattern retained; very

Cc1cc(Nc2cc(N)ncn2)c(=O)n2c1C(=O)NC21CCC2(CC2)CC1 [Pattern 1]
acidic pKa (acidic center) (pKa measurements): Acidic: 11.49 | basic pKa (pKa measurements): Basic: 4.73 | solubility thermodynamic ([3]; simulated gastric fluid, SGF (pH 1.4), read-out: Thermodynamic solubility in simulated media, SGF): 0.13 mg/mL (≈ 0.355 mM) | solubility thermodynamic ([3]; FaSSIF (pH 6.7), read-out: Thermodynamic solubility in simulated media, FaSSIF): 0.006 mg/mL (≈ 0.0164 mM) | solubility thermodynamic ([3]; FeSSIF (pH 5.1), read-out: Thermodynamic solubility in simulated media, FeSSIF): 0.02 mg/mL (≈ 0.0546 mM) | GVS mass change expressed as water ([4]; 0-90% RH): ~90% RH, exhibiting a slight hysteresis (ca. 6 mol eq water), | Post GVS XRPD form ([4]; after double cycle GVS, listed as Lot A): unchanged; also recorded: showed that the solid form remained as poorly crystalline | hygroscopicity (in words) ([4]; listed as Lot A): highly hygroscopic. XRPD of the sample after the analysis | HPLC after storage at 40° C./75% RH (8 days) ([1]; 40° C./75% RH, 8 days): HPLC-98.2% | XRPD after storage at 40° C./75% RH (8 days) ([1]; 40° C./75% RH, 8 days, listed as Lot A): unchanged; also recorded: XRPD-poorly crystalline Pattern 1 (no change) | HPLC purity after storage at 25° C./97% RH (8 days) [5]: HPLC-97.5% | XRPD after storage at 25° C./97% RH (8 days) [5]: XRPD-poorly crystalline Pattern 1 (no change) | solubility in solvents (in words) ([6]; up to 50 vol, up to 50° C.): insoluble in most solvents

Cc1cc(Nc2cc(N)ncn2)c(=O)n2c1C(=O)NC21CCC2(CC2)CC1 [Pattern 4]
XRPD post storage at 40° C./75% RH ([1]; 40° C./75% RH): converted to Pattern 3 | XRPD post storage at 40° C./75% RH ([2]; listed as 27-1): Change in form—Pattern 3

Cc1cc(Nc2cc(N)ncn2)c(=O)n2c1C(=O)NC21CCC2(CC2)CC1 [Pattern 6]
XRPD (Dry) ([7]; listed as 30-4): maintained after mild drying; also recorded: Pattern 6 | XRPD post storage at 40° C./75% RH ([2]; listed as 30-4): convert to Pattern 3; also recorded: form-Pattern 3

Cc1cc(Nc2cc(N)ncn2)c(=O)n2c1C(=O)NC21CCC2(CC2)CC1 [Pattern 7]
stability to storage at 40° C./75% RH (in words) ([1]; listed as 30-6): not stable to static storage | XRPD (Dry) ([7]; listed as 30-6): Pattern 7 | XRPD post storage at 40° C./75% RH ([2]; listed as 30-6): 7 days: Change in form-Pattern 3

Cc1cc(Nc2cc(N)ncn2)c(=O)n2c1C(=O)NC21CCC2(CC2)CC1 [Pattern 8-2]
solubility ([6]; 50 °C, 50 vol, 50° C., read-out: solubilization upon heating to 50° C.): < 20 mg/mL | solubility ([6]; 20 mg in 10 vol of the sample's solvent, read-out: solubilization at 10 vol): < 100 mg/mL | solubility ([6]; 20 vol of the sample's solvent, read-out: solubilization at 20 vol): < 50 mg/mL | solubility ([6]; 30 vol of the sample's solvent, read-out: solubilization at 30 vol): < 33.3 mg/mL | solubility ([6]; 40 vol of the sample's solvent, read-out: solubilization at 40 vol): < 25 mg/mL | solubility ([6]; 50 vol of the sample's solvent, read-out: solubilization at 50 vol): < 20 mg/mL

Cc1cc(Nc2cc(N)ncn2)c(=O)n2c1C(=O)NC21CCC2(CC2)CC1 [Pattern 8]
XRPD (Dry) [7]: unstable to drying under ambient conditions | XRPD post storage at 40° C./75% RH ([2]; listed as 30-15): Pattern 3

Cc1cc(Nc2cc(N)ncn2)c(=O)n2c1C(=O)NC21CCC2(CC2)CC1 [Pattern 9]
XRPD (Dry) [7]: unstable to drying under ambient conditions | form under ambient conditions (XRPD after ambient overnight) [7]: unstable at ambient conditions

Cc1cc(Nc2cc(N)ncn2)c(=O)n2c1C(=O)NC21CCC2(CC2)CC1 [Pattern 10]
VT-XRPD form at 250° C. [8]: partially converted to Pattern 11 | XRPD after vacuum released (XRPD under vacuum): converted back to Pattern 3 | form under ambient conditions (XRPD after ambient overnight) [7]: converted back to Pattern 3

Cc1cc(Nc2cc(N)ncn2)c(=O)n2c1C(=O)NC21CCC2(CC2)CC1 [Phosphate Pattern 1]
stability to storage at 40° C./75% RH (in words) [1]: remained stable by XRPD & HPLC | stability to storage at 40° C./75% RH (in words) ([1]; listed as 9-8): data. Form looks stable | XRPD post storage at 40° C./75% RH ([1]; 40° C./75% RH): consistent with PHO Pattern 1 | HPLC purity post storage at 40° C./75% RH ([1]; 40° C./75% RH, listed as 9-8): 98.5% purity. Phosphate | HPLC purity post storage at 40° C./75% RH ([1]; 40° C./75% RH, listed as 22-2): 99.1% | XRPD post storage at 40° C./75% RH ([2]; listed as 9-8): pattern retained, | XRPD post storage at 40° C./75% RH ([2]; listed as 22-2): Unchanged

Cc1cc(Nc2cc(N)ncn2)c(=O)n2c1C(=O)NC21CCC2(CC2)CC1 [SUL Pattern 1]
change of chemical purity on storage at 40° C./75% RH (in words) ([1]; 40° C./75% RH): decrease in the observed chemical purity | stability to storage at 40° C./75% RH (in words) [1]: stable to storage | HPLC purity post storage at 40° C./75% RH ([1]; 40° C./75% RH, listed as 9-3): 95.6% | change of chemical purity on storage at 40° C./75% RH (in words) ([1]; 40° C./75% RH, listed as 9-3): complex thermal data, loss of purity | XRPD post storage at 40° C./75% RH ([2]; listed as 9-3): SUL Pattern 1

Cc1cc(Nc2cc(N)ncn2)c(=O)n2c1C(=O)NC21CCC2(CC2)CC1 [Tartrate Pattern 1]
stability to storage at 40° C./75% RH (in words) [1]: stable to storage | HPLC purity post storage at 40° C./75% RH ([1]; 40° C./75% RH, listed as 9-9): 98.1% purity. Tartrate | XRPD post storage at 40° C./75% RH ([2]; listed as 9-9): pattern retained.

Cc1cc(Nc2cc(N)ncn2)c(=O)n2c1C(=O)NC21CCC2(CC2)CC1 [amorphous material]
XRPD post storage at 40° C./75% RH ([1]; 40° C./75% RH): converted to Free Form Pattern 3 | XRPD post storage at 40° C./75% RH ([2]; listed as 28-1): 7 days: Crystallization-Pattern 3 (WD)

Source: patent US20260217712A1, “SOLID STATE FORMS OF MNK INHIBITORS” (4E Therapeutics, Inc., priority 2023, published 2026)
